The structures appear in SMILES notation. “And” between values parts separate entries of the source, which are not always exact repeats. Equal entries are not always repeated. Toxic doses and inconclusive results are not listed.

For this assay, the system named is CD2F1 mice, L1210 leukemia ip, survival T/C. As to the kind of experiment: NCI In Vivo Anticancer Drug Screen. Data for tumor model L1210 Leukemia (intraperitoneal) in CD2F1 (CDF1) mice. The settings on record: higher = longer survival. Summed up: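 Compound-dosed mice with transplantable tumor versus matched vehicle controls; endpoint ratio T/C reported.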
[1] abbreviates: endpoint: mean survival time, dose: 100.0 mg/kg/injection, schedule: Q04DX003 (ip), vehicle: saline with Tween-80.
Setting [2] is: endpoint: mean survival time, dose: 400.0 mg/kg/injection, schedule: Q04DX003 (ip), vehicle: saline with Tween-80.
[3] abbreviates: endpoint: mean survival time, dose: 25.0 mg/kg/injection, schedule: Q04DX003 (ip), vehicle: saline with Tween-80.
Setting [4] is: endpoint: mean survival time, dose: 50.0 mg/kg/injection, schedule: Q04DX003 (ip), vehicle: saline with Tween-80.
[5] abbreviates: endpoint: mean survival time, dose: 100.0 mg/kg/injection, schedule: Q01DX001 (ip), vehicle: saline.
[6] abbreviates: endpoint: mean survival time, dose: 200.0 mg/kg/injection, schedule: Q01DX001 (ip), vehicle: saline.
Setting [7] is: endpoint: mean survival time, dose: 100.0 mg/kg/injection, schedule: Q01DX009 (ip), vehicle: saline with Tween-80.
Setting [8] is: endpoint: mean survival time, dose: 200.0 mg/kg/injection, schedule: Q01DX009 (ip), vehicle: saline with Tween-80.
The mark [9] stands for this setting: endpoint: mean survival time, dose: 400.0 mg/kg/injection, schedule: Q01DX009 (ip), vehicle: saline with Tween-80.
Setting [10] is: endpoint: mean survival time, dose: 400.0 mg/kg/injection, schedule: Q01DX009 (ip), vehicle: Klucel (hydroxypropylcellulose) (HPC).
The mark [11] stands for this setting: endpoint: mean survival time, dose: 100.0 mg/kg/injection, schedule: Q01DX001 (ip), vehicle: saline with Tween-80.
Setting [12] is: endpoint: mean survival time, dose: 200.0 mg/kg/injection, schedule: Q01DX001 (ip), vehicle: saline with Tween-80.
The mark [13] stands for this setting: endpoint: mean survival time, dose: 400.0 mg/kg/injection, schedule: Q01DX001 (ip), vehicle: saline with Tween-80.

For `O=C(O)C(=O)C(O)C(O)C(O)CO.O=C(O)C(=O)C(O)C(O)C(O)CO.[NH-]C1CCCCC1[NH-].[Pt+2]` (stereo not drawn), the T/C (endpoint: median survival time, dose: 3.12 mg/kg/injection, schedule: Q04DX003 (ip), vehicle: saline) was 110 % of control and 111 % of control; the T/C (endpoint: median survival time, dose: 6.25 mg/kg/injection, schedule: Q04DX003 (ip), vehicle: saline) was 115 % of control and 112 % of control; the T/C (endpoint: median survival time, dose: 12.5 mg/kg/injection, schedule: Q04DX003 (ip), vehicle: saline) was 122 % of control; the T/C (endpoint: median survival time, dose: 50.0 mg/kg/injection, schedule: Q04DX003 (ip), vehicle: saline) was 185 % of control and 188 % of control; the T/C (endpoint: median survival time, dose: 100.0 mg/kg/injection, schedule: Q04DX003 (ip), vehicle: saline) is 250 % of control and 270 % of control; the T/C (endpoint: median survival time, dose: 200.0 mg/kg/injection, schedule: Q04DX003 (ip), vehicle: saline) is 175 % of control.

Consider `O=C1C=CC(=O)N1Cc1ccco1`, for which the T/C is 102 % of control (endpoint: mean survival time, dose: 100.0 mg/kg/injection, schedule: Q04DX003 (ip), vehicle: saline); 95 % of control (endpoint: mean survival time, dose: 200.0 mg/kg/injection, schedule: Q04DX003 (ip), vehicle: saline); 90 % of control (endpoint: mean survival time, dose: 400.0 mg/kg/injection, schedule: Q04DX003 (ip), vehicle: saline).

On to `NC(CS/C=C\C(=O)O)C(=O)O` (stereo not drawn), for which the T/C by setting is: under setting [1], 101 % of control; under setting [2], 93 % of control.

On to `CN1CC(NC(=O)N(CCCl)N=O)CC2c3cccc4c3c(cn4N=O)CC21` (stereo not drawn), for which the T/C runs as follows: (endpoint: mean survival time, dose: 12.5 mg/kg/injection, schedule: Q01DX001 (ip), vehicle: other) 105 % of control; (endpoint: mean survival time, dose: 25.0 mg/kg/injection, schedule: Q01DX001 (ip), vehicle: other) 117 % of control; (endpoint: mean survival time, dose: 50.0 mg/kg/injection, schedule: Q01DX001 (ip), vehicle: other) 121 % of control; (endpoint: mean survival time, dose: 200.0 mg/kg/injection, schedule: Q01DX001 (ip), vehicle: other) 164 % of control; (endpoint: mean survival time, dose: 400.0 mg/kg/injection, schedule: Q01DX001 (ip), vehicle: other) 289 % of control.

With `C=C1C(=O)OC2CC(C)C3CC(O)OC(O)C3(C)CC12` (stereo not drawn), the T/C reads like this: (endpoint: mean survival time, dose: 3.13 mg/kg/injection, schedule: Q01DX005 (ip), vehicle: water) 88 % of control; (endpoint: mean survival time, dose: 6.25 mg/kg/injection, schedule: Q01DX005 (ip), vehicle: water) 94 % of control; (endpoint: mean survival time, dose: 12.5 mg/kg/injection, schedule: Q01DX005 (ip), vehicle: water) 102 % of control.

Regarding `O=C(NCCN1CC1)c1ccccc1C(=O)NCCN1CC1`, the T/C by setting is: under setting [3], 105 % of control; under setting [4], 100 % of control; under setting [5], 110 % of control; under setting [1], 117 % of control; under setting [6], 164 % of control.

Regarding `CC1CCC(C(O)(C(=O)c2ccccc2)c2ccccc2)C(=O)C1` (stereo not drawn), the T/C under setting [7] was 100 % of control, the T/C under setting [8] is 98 % of control and the T/C under setting [9] was 98 % of control.

As to `O=CN1CCCCC1`, the T/C runs as follows: (endpoint: mean survival time, dose: 100.0 mg/kg/injection, schedule: Q04DX002 (ip), vehicle: saline) 97 % of control; (endpoint: mean survival time, dose: 200.0 mg/kg/injection, schedule: Q04DX002 (ip), vehicle: saline) 108 % of control.

Turning to `CCC(C1=NC(C)(C)CC(C)O1)c1ccccc1` (stereo not drawn) (tested in a mixture with another compound), the T/C is, setting by setting: under setting [7], 102 % of control; under setting [8], 93 % of control.

Regarding `COc1ccc(Cn2cnc3c(=S)nc[nH]c32)cc1`, the T/C reads like this: (endpoint: mean survival time, dose: 100.0 mg/kg/injection, schedule: Q01DX001 (ip), vehicle: Klucel (hydroxypropylcellulose) (HPC)) 91 % of control; (endpoint: mean survival time, dose: 200.0 mg/kg/injection, schedule: Q01DX001 (ip), vehicle: Klucel (hydroxypropylcellulose) (HPC)) 100 % of control; (endpoint: mean survival time, dose: 400.0 mg/kg/injection, schedule: Q01DX001 (ip), vehicle: Klucel (hydroxypropylcellulose) (HPC)) 94 % of control.

For `CCC(c1ccccc1)C(CC)c1ccc(N(C)C)cc1` (stereo not drawn), the T/C was 95 % of control (endpoint: mean survival time, dose: 50.0 mg/kg/injection, schedule: Q01DX009 (ip), vehicle: Klucel (hydroxypropylcellulose) (HPC)); 94 % of control (endpoint: mean survival time, dose: 100.0 mg/kg/injection, schedule: Q01DX009 (ip), vehicle: Klucel (hydroxypropylcellulose) (HPC)); 91 % of control (endpoint: mean survival time, dose: 200.0 mg/kg/injection, schedule: Q01DX009 (ip), vehicle: Klucel (hydroxypropylcellulose) (HPC)); 97 % of control under setting [10].

Turning to `C=CC[P+](c1ccccc1)(c1ccccc1)c1ccccc1`, the T/C reads like this: (endpoint: mean survival time, dose: 6.25 mg/kg/injection, schedule: Q01DX001 (ip), vehicle: saline) 101 % of control; (endpoint: mean survival time, dose: 12.5 mg/kg/injection, schedule: Q01DX001 (ip), vehicle: saline) 100 % of control and 112 % of control; (endpoint: mean survival time, dose: 25.0 mg/kg/injection, schedule: Q01DX001 (ip), vehicle: saline) 96 % of control and 103 % of control.

For the compound `O=C1C(=O)C(Cl)=C(Cl)C(Cl)=C1Cl`, the T/C is, setting by setting: (endpoint: mean survival time, dose: 12.5 mg/kg/injection, schedule: Q01DX009 (ip), vehicle: saline with Tween-80) 96 % of control; (endpoint: mean survival time, dose: 12.5 mg/kg/injection, schedule: Q04DX003 (ip), vehicle: saline with Tween-80) 93 % of control; (endpoint: mean survival time, dose: 25.0 mg/kg/injection, schedule: Q01DX009 (ip), vehicle: saline with Tween-80) 92 % of control; under setting [3], 104 % of control; under setting [4], 104 % of control.

As to `FC1(F)C2Cc3ccccc3C2C1(Cl)Cl` (stereo not drawn), the T/C was 103 % of control (endpoint: mean survival time, dose: 75.0 mg/kg/injection, schedule: Q01DX001 (ip), vehicle: saline); 101 % of control (endpoint: mean survival time, dose: 150.0 mg/kg/injection, schedule: Q01DX001 (ip), vehicle: saline); 100 % of control (endpoint: mean survival time, dose: 300.0 mg/kg/injection, schedule: Q01DX001 (ip), vehicle: saline).

For `CC(=O)C(C(C)=O)C(c1ccccc1Cl)C(C(C)=O)C(C)=O`, the T/C by setting is: under setting [7], 98 % of control; under setting [8], 102 % of control; under setting [9], 95 % of control.

For the compound `CN(C)N=Nc1cc(C#N)cc(C#N)c1`, the T/C is 110 % of control (endpoint: mean survival time, dose: 79.0 mg/kg/injection, schedule: Q01DX009 (ip), vehicle: Klucel (hydroxypropylcellulose) (HPC)); 110 % of control (endpoint: mean survival time, dose: 118.0 mg/kg/injection, schedule: Q01DX009 (ip), vehicle: Klucel (hydroxypropylcellulose) (HPC)); 119 % of control (endpoint: mean survival time, dose: 177.0 mg/kg/injection, schedule: Q01DX009 (ip), vehicle: Klucel (hydroxypropylcellulose) (HPC)); 113 % of control (endpoint: mean survival time, dose: 266.0 mg/kg/injection, schedule: Q01DX009 (ip), vehicle: Klucel (hydroxypropylcellulose) (HPC)); 89 % of control under setting [10].

As to `O=C1N(C2CCCCC2)CC2C(c3ccccc3)N(c3ccccc3)NC12O` (stereo not drawn), the T/C is, setting by setting: under setting [11], 92 % of control; under setting [7], 97 % of control; under setting [12], 91 % of control; under setting [8], 98 % of control; under setting [13], 88 % of control; under setting [9], 108 % of control.

`CC(=O)OC12C=C(C)C(C3C(=O)OC(=O)C31)C(C)(C)C2` (stereo not drawn): the T/C reads like this: under setting [5], 103 % of control; under setting [6], 101 % of control.

With `O=C(O)C1CCC(=O)N1C(=O)OCc1ccccc1` (stereo not drawn), the T/C is, setting by setting: under setting [7], 95 % of control; under setting [8], 92 % of control; under setting [9], 90 % of control.

With `CSc1ccccc1N=Cc1cc(Cl)ccc1O`, the T/C was 96 % of control (endpoint: mean survival time, dose: 25.0 mg/kg/injection, schedule: Q01DX001 (ip), vehicle: saline with Tween-80); 96 % of control (endpoint: mean survival time, dose: 50.0 mg/kg/injection, schedule: Q01DX001 (ip), vehicle: saline with Tween-80); 96 % of control under setting [11].

`CCOc1ccc(Nc2ncnc3nc[nH]c23)cc1CN(CCCl)CCCl`: the T/C (endpoint: mean survival time, dose: 2.0 mg/kg/injection, schedule: Q01DX009 (ip), vehicle: saline sonified) was 116 % of control; the T/C (endpoint: mean survival time, dose: 4.0 mg/kg/injection, schedule: Q01DX009 (ip), vehicle: saline sonified) was 117 % of control; the T/C (endpoint: mean survival time, dose: 8.0 mg/kg/injection, schedule: Q01DX009 (ip), vehicle: saline sonified) was 116 % of control.

For `CCOC(=O)Cc1cnc(SC)nc1Nc1ccc(Br)cc1`, the T/C under setting [11] is 89 % of control, the T/C under setting [12] was 89 % of control and the T/C under setting [13] was 100 % of control.

Consider `O=C(NC1c2ccccc2-c2ccccc21)C(F)(F)F`, for which the T/C reads like this: under setting [7], 96 % of control; under setting [1], 99 % of control; under setting [8], 97 % of control; (endpoint: mean survival time, dose: 200.0 mg/kg/injection, schedule: Q04DX003 (ip), vehicle: saline with Tween-80) 99 % of control; under setting [9], 100 % of control; under setting [2], 97 % of control.
